Experimental findings from BindingDB's records for doi:10.7270/Q2R49PCF (Burnham Center For Chemical Genomics, 2012) are described below.

The experiment deals with T1, Sentrin-specific protease 1 (Homo sapiens, UniProt Q9P0U3).
T1 sequence (Q9P0U3 whole entry): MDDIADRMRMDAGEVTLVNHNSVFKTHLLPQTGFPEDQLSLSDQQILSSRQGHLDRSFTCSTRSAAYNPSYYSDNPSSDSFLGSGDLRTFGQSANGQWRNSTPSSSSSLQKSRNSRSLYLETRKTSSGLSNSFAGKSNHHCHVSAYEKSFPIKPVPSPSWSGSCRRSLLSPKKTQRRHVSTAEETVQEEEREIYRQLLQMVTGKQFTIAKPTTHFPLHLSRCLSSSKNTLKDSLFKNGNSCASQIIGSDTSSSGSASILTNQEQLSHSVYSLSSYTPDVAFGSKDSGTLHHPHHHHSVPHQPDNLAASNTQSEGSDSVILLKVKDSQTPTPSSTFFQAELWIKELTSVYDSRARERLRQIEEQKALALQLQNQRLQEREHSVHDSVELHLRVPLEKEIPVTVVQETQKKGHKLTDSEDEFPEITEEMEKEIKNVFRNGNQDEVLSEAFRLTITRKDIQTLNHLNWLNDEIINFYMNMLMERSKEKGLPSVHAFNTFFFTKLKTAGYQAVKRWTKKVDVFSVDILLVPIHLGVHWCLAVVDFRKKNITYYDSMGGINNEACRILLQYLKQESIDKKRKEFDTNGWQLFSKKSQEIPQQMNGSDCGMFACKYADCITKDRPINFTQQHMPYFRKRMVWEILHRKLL

As usually defined, the IC50 is the concentration that inhibits the measured activity by half. Low readings indicate higher potency, high ones lower potency.

Consider `CCOC1=CC(=Cc2sc(=O)[nH]c2N)C=CC1=O`, for which the concentration for half-maximal inhibition (IC50) was 18.2 µM.
Regarding `O=[N+]([O-])c1ccc(C/N=N/c2ccccc2)cc1`, the IC50 stood at 7.2 µM.
`COc1ccc(-n2c(O)c3c(c2O)C(C(=O)c2ccc(Cl)cc2)N2CCCC32)cc1` (stereo not drawn) registered an IC50 of 4.36 µM.
The compound `O=C1CC(=Nc2ccc(Cl)cc2)C(=O)N1c1ccc(Cl)cc1` [1-(4-chlorophenyl)-3-[(4-chlorophenyl)amino]pyrrole-2,5-dione] had an IC50 of 12.5 µM.
To `CC1(C)CC(=O)C2Sc3ccccc3N=C2C1` (stereo not drawn) [2,2-Dimethyl-2,3-dihydro-1H,10H-phenothiazin-4-one] belongs 42.4 µM; to `O=C(Cc1cccc2ccccc12)NC(NC(=S)Nc1ccccc1Cl)C(Cl)(Cl)Cl` (stereo not drawn) [2-(1-naphthyl)-N-[2,2,2-trichloro-1-({[(2-chlorophenyl)amino]carbonothioyl}amino)ethyl]acetamide], 8.71 µM.
Take `COc1ccc(P2(=O)Nc3ccccc3N2)cc1` [2-(4-methoxyphenyl)-1,3-dihydro-1,3,2-benzodiazaphosphole 2-oxide]: the IC50 was greater than 80 µM.
To `N#CC1C(=N)Oc2cc(Nc3ccccc3)ccc2C1c1ccncc1` (stereo not drawn) [2-amino-7-anilino-4-pyridin-4-yl-4H-1-benzopyran-3-carbonitrile] belongs 30.5 µM; to `CCN1C(=O)c2cccc3c(NC(=O)c4cccc(-n5c(O)ccc5O)c4)ccc1c23` [3-(2,5-dioxopyrrolidin-1-yl)-N-(1-ethyl-2-oxobenzo[cd]indol-6-yl)benzamide], 11.3 µM.
Next, `COc1ccc(C=Nn2c(O)csc2=S)cc1Br` [3-[(E)-(3-bromo-4-methoxyphenyl)methylideneamino]-2-sulfanylidene-4-thiazolidinone]: 9.69 µM.
Compound `O=C1CC(=O)c2cccc3cccc1c23` [3-hydroxy-1H-phenalen-1-one] came in with an IC50 of 8.55 µM.
As for `Oc1c2c(c(O)n1-c1ccccn1)C(c1ccccc1)C=CC2c1ccccc1` (stereo not drawn) [4,7-diphenyl-2-pyridin-2-yl-3a,4,7,7a-tetrahydroisoindole-1,3-dione], inhibition was half-maximal at 7.9 µM (IC50).
`COc1nccnc1NS(=O)(=O)c1ccc(NC(=S)NC(=O)c2ccc(F)cc2)cc1` [4-[3-(4-Fluoro-benzoyl)-thioureido]-N-(3-methoxy-pyrazin-2-yl)-benzenesulfonamide]: the IC50 is 15.4 µM.
With `O=C(O)c1ccc(N=NCc2cccc3nccnc23)cc1` [4-[(2E)-2-(5-quinoxalinylmethylidene)hydrazinyl]benzoic acid], it took 8.97 µM to reach half-maximal inhibition (IC50).
For the compound `CC(=O)Oc1ccc(-n2c(O)c3c(c2O)C(C(=O)c2ccc(Cl)cc2)N2CCCC32)cc1` (stereo not drawn) [Acetic acid 4-[4-(4-chloro-benzoyl)-1,3-dioxo-octahydro-pyrrolo[3,4-a]pyrrolizin-2-yl]-phenyl ester], the IC50 was 4.65 µM.
In turn, `O=C1CCCC2=Nc3cc(Cl)ccc3SC12` (stereo not drawn) [MLS000333002] yielded an IC50 of 17.1 µM.
In turn, `CN(C)c1ccc(C=NNC(=O)C(=O)CC2=NC3(CCCC3)Cc3ccccc32)cc1` [MLS000589038] gave an IC50 of 13.2 µM. The IC50 values of the last two compounds are within 1.5-fold of each other.
Regarding `COc1ccc(-n2c(O)c3c(c2O)C(C(=O)c2ccccc2)N2CCCC32)cc1` (stereo not drawn) [MLS000762485], the half-maximal inhibitory concentration (IC50) is 11 µM.
Compound `O=C(c1ccccc1)[C@@H]1c2c(c(O)n(-c3ccc(F)cc3)c2O)C2CCCN21` (stereo partly drawn) [MLS000769629] came in with an IC50 of 7.78 µM.
Regarding `CCOc1cc(C=c2[nH]c3n(c2=O)CCCCC=3)ccc1O` [MLS000774439], the IC50 was 7.67 µM.
Next, `CC1=C(C#N)C(=O)NC(=O)C1=NNc1ccc(Br)cc1C(=O)O` [MLS001213177]: 10.6 µM; `O=NC1c2cc([N+](=O)[O-])ccc2-c2cc(Cl)c(NC(=O)C(F)(F)F)cc21` (stereo not drawn) [MLS002707326]: 2.89 µM; `Nc1ccc2c(c1)C(N=O)c1cc([N+](=O)[O-])ccc1-2` (stereo not drawn) [N-(2-azanyl-7-nitro-fluoren-9-ylidene)hydroxylamine]: 3.12 µM.
